Test results from article doi:10.1101/2023.11.24.568596v1 (biorxiv, 2023).
One block for each compound: values may come before it.

Columns and labels:
Conditions in all cases: binder
[1] = molecular target: CLK1 (Homo sapiens, UniProt P49759)
[2] = molecular target: CaMK1g (Homo sapiens, UniProt Q96NX5)
[3] = molecular target: CaMK2d (Homo sapiens, UniProt Q13557)
[4] = molecular target: T1, CaMK4 (Homo sapiens, UniProt Q16566)
T1 sequence (Q16566 1-473): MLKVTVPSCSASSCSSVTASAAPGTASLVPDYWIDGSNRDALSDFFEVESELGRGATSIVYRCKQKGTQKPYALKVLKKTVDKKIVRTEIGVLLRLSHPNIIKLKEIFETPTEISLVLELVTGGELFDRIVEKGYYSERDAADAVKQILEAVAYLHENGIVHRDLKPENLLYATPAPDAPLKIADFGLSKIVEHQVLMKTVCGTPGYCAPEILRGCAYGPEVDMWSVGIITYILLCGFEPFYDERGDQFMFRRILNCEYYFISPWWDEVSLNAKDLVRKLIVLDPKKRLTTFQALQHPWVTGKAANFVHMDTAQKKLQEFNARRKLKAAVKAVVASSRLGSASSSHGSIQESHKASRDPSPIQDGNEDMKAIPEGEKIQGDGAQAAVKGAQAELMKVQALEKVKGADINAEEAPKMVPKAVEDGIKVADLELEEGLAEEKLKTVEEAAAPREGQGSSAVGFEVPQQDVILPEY

[5] = molecular target: T2, DRAK2 (Homo sapiens, UniProt O94768)
T2 sequence (O94768 1-372): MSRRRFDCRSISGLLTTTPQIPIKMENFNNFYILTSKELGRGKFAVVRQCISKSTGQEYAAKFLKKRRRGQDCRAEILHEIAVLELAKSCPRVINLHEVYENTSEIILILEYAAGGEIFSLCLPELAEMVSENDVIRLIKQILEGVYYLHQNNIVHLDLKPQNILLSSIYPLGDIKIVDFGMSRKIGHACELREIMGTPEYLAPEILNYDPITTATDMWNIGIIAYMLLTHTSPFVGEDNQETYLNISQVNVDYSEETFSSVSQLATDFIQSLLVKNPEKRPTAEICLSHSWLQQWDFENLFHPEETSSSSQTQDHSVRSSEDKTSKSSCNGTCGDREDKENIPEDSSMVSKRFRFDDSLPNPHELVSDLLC

[6] = molecular target: EphA5 (Homo sapiens, UniProt P54756)
EphA5, sequence (P54756 whole entry): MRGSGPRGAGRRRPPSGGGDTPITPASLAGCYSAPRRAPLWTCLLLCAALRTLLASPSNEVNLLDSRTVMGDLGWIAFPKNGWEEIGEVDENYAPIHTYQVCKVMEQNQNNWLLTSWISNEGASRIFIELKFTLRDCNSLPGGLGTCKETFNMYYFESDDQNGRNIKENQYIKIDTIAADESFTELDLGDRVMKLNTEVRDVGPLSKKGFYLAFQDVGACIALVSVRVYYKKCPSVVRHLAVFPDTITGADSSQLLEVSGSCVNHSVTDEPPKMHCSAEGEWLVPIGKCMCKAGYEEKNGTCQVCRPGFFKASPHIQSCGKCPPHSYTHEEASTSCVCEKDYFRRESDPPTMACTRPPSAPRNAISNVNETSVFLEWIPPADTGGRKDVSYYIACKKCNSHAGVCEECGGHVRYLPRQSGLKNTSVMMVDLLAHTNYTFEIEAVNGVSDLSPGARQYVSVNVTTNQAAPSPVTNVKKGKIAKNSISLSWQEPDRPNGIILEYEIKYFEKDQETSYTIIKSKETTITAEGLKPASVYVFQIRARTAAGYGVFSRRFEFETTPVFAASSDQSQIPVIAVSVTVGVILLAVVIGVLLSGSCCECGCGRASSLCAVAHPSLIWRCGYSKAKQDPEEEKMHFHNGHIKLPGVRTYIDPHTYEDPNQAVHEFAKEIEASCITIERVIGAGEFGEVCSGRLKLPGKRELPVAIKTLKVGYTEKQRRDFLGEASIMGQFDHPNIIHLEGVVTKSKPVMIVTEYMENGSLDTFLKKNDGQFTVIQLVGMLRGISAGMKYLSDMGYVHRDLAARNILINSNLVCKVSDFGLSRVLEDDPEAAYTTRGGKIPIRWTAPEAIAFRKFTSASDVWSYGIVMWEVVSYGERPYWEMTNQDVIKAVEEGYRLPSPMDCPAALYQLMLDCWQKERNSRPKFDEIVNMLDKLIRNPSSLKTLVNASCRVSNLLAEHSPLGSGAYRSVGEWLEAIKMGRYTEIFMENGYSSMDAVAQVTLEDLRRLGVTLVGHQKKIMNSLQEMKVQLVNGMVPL

[7] = molecular target: HIPK2 (Homo sapiens, UniProt Q9H2X6)
HIPK2, sequence (Q9H2X6 whole entry): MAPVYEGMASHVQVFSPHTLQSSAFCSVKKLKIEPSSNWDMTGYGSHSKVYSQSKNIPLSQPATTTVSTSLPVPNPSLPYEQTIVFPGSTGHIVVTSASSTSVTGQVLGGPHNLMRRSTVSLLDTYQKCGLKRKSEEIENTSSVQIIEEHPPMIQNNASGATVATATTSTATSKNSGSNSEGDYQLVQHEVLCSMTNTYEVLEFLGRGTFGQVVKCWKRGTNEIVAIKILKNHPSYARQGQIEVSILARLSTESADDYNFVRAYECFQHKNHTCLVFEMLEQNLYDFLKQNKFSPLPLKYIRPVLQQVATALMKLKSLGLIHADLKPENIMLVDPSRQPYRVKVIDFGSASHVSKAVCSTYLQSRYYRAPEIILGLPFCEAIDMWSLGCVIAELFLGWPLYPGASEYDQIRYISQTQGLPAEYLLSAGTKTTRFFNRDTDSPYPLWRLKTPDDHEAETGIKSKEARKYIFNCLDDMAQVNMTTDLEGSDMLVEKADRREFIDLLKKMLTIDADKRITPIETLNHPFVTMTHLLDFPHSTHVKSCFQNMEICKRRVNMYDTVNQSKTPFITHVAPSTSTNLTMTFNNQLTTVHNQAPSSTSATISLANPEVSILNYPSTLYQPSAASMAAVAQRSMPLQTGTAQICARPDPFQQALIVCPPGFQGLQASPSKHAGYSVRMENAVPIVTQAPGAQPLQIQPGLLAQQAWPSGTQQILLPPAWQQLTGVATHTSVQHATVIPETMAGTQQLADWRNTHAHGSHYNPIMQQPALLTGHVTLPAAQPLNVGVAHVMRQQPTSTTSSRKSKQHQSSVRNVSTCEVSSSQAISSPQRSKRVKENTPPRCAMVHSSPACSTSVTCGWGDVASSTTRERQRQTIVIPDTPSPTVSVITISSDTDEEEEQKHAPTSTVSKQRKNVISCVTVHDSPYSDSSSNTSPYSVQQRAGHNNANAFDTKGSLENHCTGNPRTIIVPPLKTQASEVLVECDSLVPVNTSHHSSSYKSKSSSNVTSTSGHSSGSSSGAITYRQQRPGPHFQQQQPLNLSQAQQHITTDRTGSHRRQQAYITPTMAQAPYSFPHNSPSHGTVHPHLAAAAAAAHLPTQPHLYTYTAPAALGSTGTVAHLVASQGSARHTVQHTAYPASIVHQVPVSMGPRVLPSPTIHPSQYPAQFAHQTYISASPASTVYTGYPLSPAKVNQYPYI

[8] = molecular target: T3, Haspin (Homo sapiens, UniProt Q8TF76)
T3 sequence (Q8TF76 1-798): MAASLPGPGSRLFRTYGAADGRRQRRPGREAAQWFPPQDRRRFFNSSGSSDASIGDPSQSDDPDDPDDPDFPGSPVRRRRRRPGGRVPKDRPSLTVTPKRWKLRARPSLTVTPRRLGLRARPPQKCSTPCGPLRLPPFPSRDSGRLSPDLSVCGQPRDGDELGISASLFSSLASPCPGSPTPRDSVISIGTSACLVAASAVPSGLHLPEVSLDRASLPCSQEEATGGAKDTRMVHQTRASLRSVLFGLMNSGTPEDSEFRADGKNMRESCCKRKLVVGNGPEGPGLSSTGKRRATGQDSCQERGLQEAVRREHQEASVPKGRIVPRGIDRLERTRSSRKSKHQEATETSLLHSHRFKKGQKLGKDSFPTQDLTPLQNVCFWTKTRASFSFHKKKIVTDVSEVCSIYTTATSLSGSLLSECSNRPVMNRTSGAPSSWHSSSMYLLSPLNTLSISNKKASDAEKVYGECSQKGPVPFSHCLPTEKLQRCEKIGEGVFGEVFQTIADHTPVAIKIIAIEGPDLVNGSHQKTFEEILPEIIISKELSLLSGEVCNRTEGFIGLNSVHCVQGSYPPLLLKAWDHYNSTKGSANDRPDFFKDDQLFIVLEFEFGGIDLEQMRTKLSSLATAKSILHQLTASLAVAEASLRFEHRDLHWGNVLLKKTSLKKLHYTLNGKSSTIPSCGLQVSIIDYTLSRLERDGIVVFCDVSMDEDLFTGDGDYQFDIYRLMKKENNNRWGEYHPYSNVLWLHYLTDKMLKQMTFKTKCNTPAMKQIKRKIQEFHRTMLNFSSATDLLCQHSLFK

[9] = molecular target: MELK (Homo sapiens, UniProt Q14680)
MELK, sequence (Q14680 whole entry): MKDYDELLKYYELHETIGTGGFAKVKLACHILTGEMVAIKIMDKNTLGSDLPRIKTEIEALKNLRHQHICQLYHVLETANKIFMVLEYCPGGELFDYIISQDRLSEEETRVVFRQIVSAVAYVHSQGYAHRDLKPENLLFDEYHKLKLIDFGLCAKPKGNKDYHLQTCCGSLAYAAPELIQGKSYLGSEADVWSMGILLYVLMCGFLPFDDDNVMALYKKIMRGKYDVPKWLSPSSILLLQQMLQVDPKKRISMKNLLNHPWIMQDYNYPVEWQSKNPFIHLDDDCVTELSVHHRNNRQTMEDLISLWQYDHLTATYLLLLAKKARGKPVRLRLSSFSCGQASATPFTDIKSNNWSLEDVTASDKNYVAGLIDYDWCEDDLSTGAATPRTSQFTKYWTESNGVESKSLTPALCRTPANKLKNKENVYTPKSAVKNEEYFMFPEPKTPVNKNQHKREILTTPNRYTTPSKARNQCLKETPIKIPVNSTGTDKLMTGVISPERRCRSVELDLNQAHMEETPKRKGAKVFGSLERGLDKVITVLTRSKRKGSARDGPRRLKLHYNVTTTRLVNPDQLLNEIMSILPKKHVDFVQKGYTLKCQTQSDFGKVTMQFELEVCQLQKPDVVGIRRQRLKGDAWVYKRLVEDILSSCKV

[10] = molecular target: SLK (Homo sapiens, UniProt Q9H2G2)
SLK, sequence (Q9H2G2 whole entry): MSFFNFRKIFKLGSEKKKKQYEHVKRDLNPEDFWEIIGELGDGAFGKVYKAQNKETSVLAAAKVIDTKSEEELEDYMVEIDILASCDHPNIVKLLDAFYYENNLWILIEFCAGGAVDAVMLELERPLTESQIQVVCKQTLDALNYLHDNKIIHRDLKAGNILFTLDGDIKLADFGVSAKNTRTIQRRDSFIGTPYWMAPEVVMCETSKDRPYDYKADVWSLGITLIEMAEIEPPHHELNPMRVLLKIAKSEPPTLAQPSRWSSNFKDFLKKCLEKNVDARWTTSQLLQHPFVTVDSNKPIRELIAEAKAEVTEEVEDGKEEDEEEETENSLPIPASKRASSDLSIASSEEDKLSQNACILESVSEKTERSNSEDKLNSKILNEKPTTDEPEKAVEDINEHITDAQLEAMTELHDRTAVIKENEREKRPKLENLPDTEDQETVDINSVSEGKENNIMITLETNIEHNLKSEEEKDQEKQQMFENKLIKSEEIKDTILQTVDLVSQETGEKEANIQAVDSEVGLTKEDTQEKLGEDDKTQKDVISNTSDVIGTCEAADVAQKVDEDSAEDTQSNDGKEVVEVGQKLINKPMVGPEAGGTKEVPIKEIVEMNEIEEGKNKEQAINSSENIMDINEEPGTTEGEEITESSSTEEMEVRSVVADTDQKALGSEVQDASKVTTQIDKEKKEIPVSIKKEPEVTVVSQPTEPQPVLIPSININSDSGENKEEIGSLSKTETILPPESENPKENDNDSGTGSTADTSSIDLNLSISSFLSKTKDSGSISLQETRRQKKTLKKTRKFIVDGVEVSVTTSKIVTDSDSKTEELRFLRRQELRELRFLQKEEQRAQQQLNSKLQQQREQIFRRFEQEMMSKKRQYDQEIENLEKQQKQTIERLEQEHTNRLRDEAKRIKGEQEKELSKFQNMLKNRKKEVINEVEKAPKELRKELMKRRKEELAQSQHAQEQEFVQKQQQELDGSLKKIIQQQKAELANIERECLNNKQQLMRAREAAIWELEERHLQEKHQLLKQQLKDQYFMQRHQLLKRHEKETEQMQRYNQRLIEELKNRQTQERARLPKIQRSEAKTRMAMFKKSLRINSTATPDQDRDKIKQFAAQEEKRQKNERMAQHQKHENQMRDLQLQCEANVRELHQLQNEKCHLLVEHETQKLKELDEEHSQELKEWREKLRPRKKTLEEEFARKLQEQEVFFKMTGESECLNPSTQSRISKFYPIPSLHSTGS

[11] = molecular target: STLK3 (Homo sapiens, UniProt Q9UEW8)
[12] = molecular target: T4, VRK1 (Homo sapiens, UniProt Q99986)
T4 sequence (Q99986 1-396): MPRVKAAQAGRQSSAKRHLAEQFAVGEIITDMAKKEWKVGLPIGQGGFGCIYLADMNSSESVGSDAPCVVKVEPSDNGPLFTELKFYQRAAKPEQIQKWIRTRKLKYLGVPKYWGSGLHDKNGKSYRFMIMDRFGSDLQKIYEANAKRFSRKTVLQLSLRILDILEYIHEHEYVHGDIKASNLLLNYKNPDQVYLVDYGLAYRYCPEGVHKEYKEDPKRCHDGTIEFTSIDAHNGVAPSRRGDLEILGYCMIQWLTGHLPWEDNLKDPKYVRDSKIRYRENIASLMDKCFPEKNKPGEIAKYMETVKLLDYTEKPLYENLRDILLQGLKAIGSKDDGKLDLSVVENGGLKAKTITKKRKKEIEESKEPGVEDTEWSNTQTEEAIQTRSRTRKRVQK

CaMK2d, sequence (Q13557 whole entry): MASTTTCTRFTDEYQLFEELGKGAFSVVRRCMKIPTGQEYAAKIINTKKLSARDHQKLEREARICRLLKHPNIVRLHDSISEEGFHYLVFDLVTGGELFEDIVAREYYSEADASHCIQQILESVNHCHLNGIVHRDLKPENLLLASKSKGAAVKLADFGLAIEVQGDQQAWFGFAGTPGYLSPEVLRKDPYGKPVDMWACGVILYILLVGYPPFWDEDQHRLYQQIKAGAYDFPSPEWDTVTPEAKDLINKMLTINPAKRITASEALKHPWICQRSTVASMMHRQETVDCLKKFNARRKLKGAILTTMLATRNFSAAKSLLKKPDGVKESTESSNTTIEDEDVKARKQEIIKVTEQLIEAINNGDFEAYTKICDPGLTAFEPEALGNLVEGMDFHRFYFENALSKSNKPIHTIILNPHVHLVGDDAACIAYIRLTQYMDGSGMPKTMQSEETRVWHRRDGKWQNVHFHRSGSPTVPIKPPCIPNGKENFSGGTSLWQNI
CaMK1g, sequence (Q96NX5 whole entry): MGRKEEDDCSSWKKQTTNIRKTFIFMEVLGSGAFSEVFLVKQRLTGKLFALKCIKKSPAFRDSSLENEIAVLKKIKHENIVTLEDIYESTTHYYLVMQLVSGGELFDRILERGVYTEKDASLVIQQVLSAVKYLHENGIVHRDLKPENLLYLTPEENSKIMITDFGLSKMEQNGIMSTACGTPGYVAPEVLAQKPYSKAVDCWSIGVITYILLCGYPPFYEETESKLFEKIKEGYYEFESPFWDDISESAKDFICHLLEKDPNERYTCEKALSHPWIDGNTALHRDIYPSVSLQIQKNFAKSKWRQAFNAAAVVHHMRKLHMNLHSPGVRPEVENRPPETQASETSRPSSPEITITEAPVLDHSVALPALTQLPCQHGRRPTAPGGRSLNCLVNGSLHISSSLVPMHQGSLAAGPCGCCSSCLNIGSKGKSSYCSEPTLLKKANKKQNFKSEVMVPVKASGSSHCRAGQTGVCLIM

dTm 33 [1]: -0.2 °C
dTm 33 [2]: 6.7 °C
dTm 33 [3]: -0.2 °C
dTm 33 [4]: 5.2 °C
dTm 33 [5]: 10.5 °C
dTm 33 [6]: 6.8 °C
dTm 33 [7]: 2.0 °C
dTm 33 [8]: -0.2 °C
dTm 33 [9]: 6.4 °C
dTm 33 [10]: 8.0 °C
dTm 33 [11]: 16.8 °C
dTm 33 [12]: 0.4 °C
Compound: Cc1cccc(-c2ccc(-c3cc4cnc(Nc5ccc(F)c(CO)c5)nc4n(CCCCN)c3=O)c(Cl)c2)n1 [compound 33, 8-(4-Aminobutyl)-6-(2-chloro-4-(6-methylpyridin-2-yl)phenyl)-2-((4-fluoro-3-(hydroxymethyl)phenyl)amino)pyrido[2,3-d]pyrimidin-7(8H)-one]

dTm 34 [1]: -0.3 °C
dTm 34 [2]: 3.8 °C
dTm 34 [3]: -0.2 °C
dTm 34 [4]: 3.9 °C
dTm 34 [5]: 7.5 °C
dTm 34 [6]: 3.2 °C
dTm 34 [7]: 0.5 °C
dTm 34 [8]: -0.2 °C
dTm 34 [9]: 3.3 °C
dTm 34 [10]: 4.7 °C
dTm 34 [11]: 11.0 °C
dTm 34 [12]: 0.0 °C
Compound: COc1ccc(O)c(Nc2ncc3cc(-c4ccc(-c5cccc(C)n5)cc4Cl)c(=O)n(CCCCN)c3n2)c1 [compound 34, 8-(4-Aminobutyl)-6-(2-chloro-4-(6-methylpyridin-2-yl)phenyl)-2-((2-hydroxy-5-methoxy-phenyl)amino)pyrido[2,3-d]pyrimidin-7(8H)-one]

dTm 35 [1]: -1.6 °C
dTm 35 [2]: 7.1 °C
dTm 35 [3]: -0.9 °C
dTm 35 [4]: 5.7 °C
dTm 35 [5]: 7.0 °C
dTm 35 [6]: 4.2 °C
dTm 35 [7]: 0.1 °C
dTm 35 [8]: -0.1 °C
dTm 35 [9]: 7.5 °C
dTm 35 [10]: 5.1 °C
dTm 35 [11]: 13.4 °C
dTm 35 [12]: -0.2 °C
Compound: COc1cc(N2CCOCC2)ccc1Nc1ncc2cc(-c3ccc(-c4cccc(C)n4)cc3Cl)c(=O)n(CCCCN)c2n1 [compound 35, 8-(4-Aminobutyl)-6-(2-chloro-4-(6-methylpyridin-2-yl)phenyl)-2-((2-methoxy-4-morpholino-phenyl)amino)pyrido[2,3-d]pyrimidin-7(8H)-one]

dTm 36 [1]: -0.9 °C
dTm 36 [2]: 7.0 °C
dTm 36 [3]: -0.2 °C
dTm 36 [4]: 3.2 °C
dTm 36 [5]: 4.3 °C
dTm 36 [6]: 3.5 °C
dTm 36 [7]: 0.3 °C
dTm 36 [8]: -0.7 °C
dTm 36 [9]: 7.4 °C
dTm 36 [10]: 4.2 °C
dTm 36 [11]: 9.3 °C
dTm 36 [12]: 0.1 °C
Compound: COc1cc(N2CCN(C)CC2)ccc1Nc1ncc2cc(-c3ccc(-c4cccc(C)n4)cc3Cl)c(=O)n(CCCCN)c2n1 [compound 36, 8-(4-Aminobutyl)-6-(2-chloro-4-(6-methylpyridin-2-yl)phenyl)-2-((2-methoxy-4-(4-methylpiperazin-1-yl)phenyl)amino)pyrido[2,3-d]pyrimidin-7(8H)-one]
